# Columns and labels:
# [1] = system: male ICR mice; assay: Side effect on neutrophil and red blood cell count; assay type: in vivo, mouse; conditions: day 1, 3, 7, 14 post-treatment (FIGS. 5B, 5C)
# Description: (A) Body weight changes. NSG mice were treated with CXCL5 and anti-CCL24 antibody twice weekly with gradually increasing dose (3 mice were used in each group). (B & C) Side effect on neutrophil and red blood cell count. ICR mice treated with dPBS, CXCL5 and anti-CCL24 antibody were bled and a blood count was performed on day 1, day 3, day 7 and day 14 post-treatment (4 male mice were used for each group). (D & E & F) Liver and kidney toxicity. ICR mice were treated with dPBS, CXCL5 and anti-CCL24 antibody on day 0, day 4 and day 7. Mice peripheral blood by cheek bleeding and urine were harvested on day 1, day 5 and day 8. Alanine transaminase (ALT) and aspartate transaminase (AST or SGOT) concentration in plasma were determined by ALT and AST activity assay kit. Both alanine transaminase and aspartate transaminase are enzyme associated with the liver and are therefore used as clinical marker for liver health. Albumin creatinine ratio (ACR) in urine was determined by Mouse Albumin ELISA kit and Jaffe's reaction using Creatinine Colorimetric Assay kit (3 female ICR mice were used for each group).
# [2] = system: DBA/2J mice with bleomycin-induced skin fibrosis; assay: Bleomycin-induced scleroderma (systemic sclerosis) mouse model; assay type: in vivo
# Description: Skin fibrosis was induced in 6 to 8-week-old DBA/2J mice by subcutaneous injection of bleomycin (0.5 mg/mi) into defined areas of 1 cm^2 on the lower back every other day, for 21 days. After a 3-week bleomycin challenge, another 3-week treatment was followed. 50 ng/ml of CXCL5 was given twice/week for 3 consecutive weeks. Mice treated with dPBS, bone marrow-derived mesenchymal stem cells (BM-MSCs; 5-10×10^6 cells/kg, single injection) and Prednisolone (Pred) (1 mg/kg/day for first 10 days, 0.5 mg/kg/day for the second 10 days) were used as positive and standard controls. Mice were sacrificed on day 21 post-treatment and the injected skin and peripheral blood were processed for further analysis.
# Lesioned skin areas were excised, fixed in 10% formalin, and embedded in paraffin. Sections (5 μm thick) were stained with hematoxylin & eosin (H&E). The dermal thickness was analyzed at 100-fold magnification by measuring the distance between the epidermal-dermal junction and the dermal-subcutaneous fat junction at four sites from the lesioned skin of each mouse. Dermal leukocyte infiltration was counted on randomly-taken photos with High Power Field (HPF) (400×). Five photos were taken for each mouse. The average cell number of these five photos was used for counting the leukocyte infiltration. Two independent examiners performed the evaluation.
substance,measurement,setting,value
"CXCL5: epithelial-derived neutrophil-activating protein 78, a CXC chemokine; human source",neutrophil and RBC count,[1],did not alter neutrophil and RBC count
same,leukocyte infiltration in the skin,[2]; FIG. 22B,2.3±2.0 cells/HPF
same,hematopoiesis in bone marrow,[2]; FIG. 23A,maintain the normal hematopoiesis in bone marrow
same,effector cells in peripheral blood,[2]; FIG. 23B,suppressing the proliferation of monocytes and TH1 cells in peripheral blood
same,skin thickness,[2]; after 3-week treatment (FIG. 22A),277.2±47.6 μm

# — patent US11246910B2, “Methods of treating immunological disorders using immunosuppressive compositions” (Singapore Health Services Pte Ltd, priority 2016, dated 2022)
